The subject of data set [1] is Rattus norvegicus. In words: Iron chelating activity in rat assessed as faecal iron excretion at 25 to 100 mg/kg, po administered as single dose relative to basal level. It is filed as functional, Feces. To be noted: dose mg/kg 25-100.
Data set [2] deals with M109. Nature of the data set: Antitumor activity against mouse M109 cells implanted in CD2F1 hybrid mouse assessed as reduction of tumor weight at 6 mg/kg, iv administered 4 days after implantation BID for 5 days measured on day 12 after implantation relative to control. It is filed as functional. Details: scale not given: the % may be the effect or the level left.
A short description of data set [3]: Toxicity in iv dosed CD2F1 hybrid mouse assessed as maximum tolerated dose administered BID at an interval of 6 hrs for 5 days a week over 2 weeks. It is filed as organism-based. As to conditions: in vivo.
For data set [4], the system named is MRC5. In words: Antiproliferative activity against human MRC5 cells after 72 hrs by MTT assay. It is filed as cell-based. As to conditions: MRC5, 72 h.
The subject of data set [5] is SK-N-MC. Nature of the data set: cells. As to conditions: Homo sapiens, 72 h.
Description: Antiproliferative activity against human SK-N-MC cells after 72 hrs by MTT assay
Data set [6] relates to SK-N-MC. Nature of the data set: Iron chelating activity in human SK-N-MC cells assessed as cellular iron efflux at 25 uM after 3 hrs relative to control. The data set is classed as functional.
In data set [7] the test system is SK-MEL-28. Nature of the data set: Antitumor activity against human SK-MEL-28 cells implanted in nude mouse assessed as reduction in tumor growth at 0.4 mg/kg/day measured up to 7 weeks relative to control. Further details: scale not given: the % may be the effect or the level left. It is filed as functional.
Data set [8] relates to SK-N-MC. Nature of the data set: Effect on iron metabolism in human SK-N-MC cells assessed as cellular iron uptake from transferrin at 25 uM after 3 hrs in presence of pronase relative to control. It is filed as functional.
Data set [9] relates to M109. In words: Antitumor activity against mouse M109 cells implanted in CD2F1 hybrid mouse assessed as reduction of tumor weight at 0.4 mg/kg, iv administered 4 days after implantation BID for 5 days measured on day 12 after implantation relative to control. Details: scale not given: the % may be the effect or the level left. It is filed as functional.
In data set [10] the test system is SK-N-MC. In words: Antiproliferative activity against human SK-N-MC cells. The data set is classed as functional, cell-based.
For data set [11], the system named is SK-N-MC. In words: Antiproliferative activity against human SK-N-MC cells after 96 hrs by MTT assay. The data set is classed as functional, cell-based.
Data set [12] has as its system SK-N-MC. In words: Antiproliferative activity against human SK-N-MC cells by MTT assay. It is filed as functional, cell-based.
Data set [13] can be described thus: Antitumor activity against human CHP100 cells at 60 uM after 72 hrs. The data set is classed as functional.
Data set [14] has as its system CHP-126. In words: Antitumor activity against human CHP126 cells at 60 uM after 72 hrs. It is filed as functional.

With `Cc1ncc(CO)c(/C=N/NC(=O)c2ccncc2)c1O` [PYRIDOXAL ISONICOTINOYL HYDRAZONE], the “fold change (FC)” value in [1] was 8.
Turning to `NC(=S)N/N=C/c1ncccc1N` [TRIAPINE], the Activity in data set [2] turned out to be 10%. In data set [3], the maximal tolerated dose (MTD) at 2 weeks was 6 mg/kg.
For `NC(=S)N/N=C/c1c(O)ccc2ccccc12`, the concentration for half-maximal inhibition (IC50) in data set [4] was over 25000 nM; in data set [5], 500 nM.
On to `CN(C)C(=S)NN=C(c1ccccn1)c1ccccn1`, for which the Activity in data set [6] amounted to 47%; in data set [7], 8%; in data set [8] it was 9%; in [9] it was 47%. This molecule also gave a half-maximal inhibitory concentration (IC50) in [5] of 30 nM. The MTD at 2 weeks in data set [3] was found to be 0.4 mg/kg.
On to `O=C(N/N=C/c1c(O)ccc2ccccc12)c1ccncc1`, for which the IC50 came to 300 nM in [10], 300 nM in data set [5] and 1000 nM in data set [11].
`O=C(N/N=C(\c1ccccc1)c1ccccn1)c1ccccc1`: inhibition in data set [12] was half-maximal at 1000 nM (IC50).
With `CC(=O)N(O)CCCCCNC(=O)CCC(=O)N(O)CCCCCNC(=O)CCC(=O)N(O)CCCCCN` [DEFEROXAMINE], the IC50 in data set [10] is 22000 nM; in data set [5] it was 5000 nM. In addition, the Activity in data set [13] and in data set [14] was 80% each time.
Consider `O=C(N/N=C/c1ccccn1)c1cccs1`, for which inhibition in [12] was half-maximal at 1000 nM (IC50).

Source of the values: ChEMBL document CHEMBL1154773, “Thiosemicarbazones from the old to new: iron chelators that are more than just ribonucleotide reductase inhibitors” (J Med Chem, 2009).
